# Where “and” joins values, the source holds several entries; their conditions need not be identical. Equal entries are not always repeated.
# Key:
# [1] = system: NCI-N87 cell; assay: Cell proliferation inhibitory activity, Cell-Titer-Glo, NCI-N87; assay type: cell-based, human; conditions: 3 days incubation
# Source text: (§1) Experiment object: to detect the inhibitory activity of the tested compound on cell proliferation.
# (§2) Experimental principle: the luciferase in the Cell-Titer-Glo reagent uses luciferin, oxygen and ATP as reaction substrates to produce oxyluciferin and release energy in the form of light. Since the luciferase reaction requires ATP, the total amount of light produced by the reaction is proportional to the total amount of ATP that reflects cell viability.
# (§3) Experimental Materials: • cell lines: NCI-N87 cell line (ATCC-CRL-5822); BT-474 cell line (ATCC-HTB-20) • Cell culture medium: RPMI 1640 medium (Invitrogen #22400-105; 10% serum Invitrogen #10090148; L-glutamine 1×, Gibco #25030-081; double antibody Hyclone #SV30010) • CellTiter-Glo® luminescence cell viability detection kit (Promega #G7573) • 384-well cell culture plate (Greiner #781090) • Compound plate (LABCYTE #LP-0200) • CO2 incubator (Thermo #371) • Vi-cell cell counter (Beckman Coulter) • Pipette (Eppendorf) • Pipette (Greiner) • Pipetting gun (Eppendorf) • Multifunctional microplate reader (Envision Reader) • ECHO Liquid-handling workstation (Labcyte-ECHO555)
# (§4) The cells were inoculated in a 384-well plate with a density of 1000 cells per well and 25 μL per well. The edge wells were not inoculated with cells, and was supplemented with 25 μL of phosphate buffer.
# (§5) The compound was added to the plate with 9 μL per well.
# (§6) (2) The compound was diluted with ECHO liquid-handling workstation, and each well of the cell plate was added with 125 nL of compound. Each well of the cell wells of columns 2 and 23 was added with 125 nL of DMSO, and each well of the Media wells of columns 1 and 24 was added with 125 nL of DMSO.
# (§7) (3) Each well of the cell plate was supplemented with 25 μL of culture medium, and the final volume in each well of the cell plate was 50 μL. The concentration of the compound was 10 μM, which was subjected to 3 fold dilution to obtain 10 concentrations. Each concentration was duplicated in left and right wells, and the final DMSO concentration was 0.25%.
# (§8) 2.3 After adding the compound, it was centrifuged at 1000 rpm for 1 min. The cell plate was placed in a 37° C., 5% CO2 incubator for 3 days.
# (§9) The cell plate was taken from the incubator and equilibrated at room temperature for 30 min. 25 μL of Cell-Titer-Glo reagent was added to each well, shaken for 1 min to make it thoroughly mixed, and centrifuged at 1000 rpm for 1 min. After 10 min, the plate was read on PerkinElmer Envision, and the […] reading time was set to 0.2 seconds.
# [2] = biological target: HER1 (ErbB1) (Homo sapiens (Human), UniProt P00533); assay: In vitro enzyme activity, HER1 (ErbB1), [γ-33P]ATP filter assay; assay type: biochemical
# Protocol: (§10) The object of this test is to detect the in vitro inhibitory activity of the compound against HER1 (ErbB1), HER2 (ErbB2) and HER4 (ErbB4). The enzymes used in this test were human ErbB1, ErbB2 and ErbB4.
# (§11) Experimental Steps and Methods (96-Well Plate):
# (§12) 5-fold diluted tested compound buffer (5 μL), peptide substrate poly(Glu, Tyr) (4:1) (2.5 μL), ErbB (4-20 ng, 2.5 μL), MnCl2 (50 mM, 1.25 μL), dH2O (3.75 μL) and [γ-^33P]ATP (10 μL) were added, and incubated at 30° C. for 10 min. 3% phosphoric acid was added to terminate the reaction, and 10 μL of the specimen was transferred to Filtermate A. The filter was washed with 75 mM phosphoric acid for three times and methanol once, and transferred to a sealed plastic bag, and a scintillation fluid mixture (4 mL) was added, The intensity of the emitted photons was detected on the scintillation luminescence counter. The photon intensity of the enzyme sample was compared with the photon intensity of the internal control sample, and the level of photon intensity reflected the strength of the tyrosine kinase activity.
# [3] = biological target: HER4 (ErbB4) (Homo sapiens (Human), UniProt Q15303); assay: In vitro enzyme activity, HER4 (ErbB4), [γ-33P]ATP filter assay; assay type: biochemical
# Protocol: as §10, with “ErbB4. Eurofins Pharma Discovery Service provided the activity detection method, and the results of the inhibitory activity of the tested compound against HER1, HER2 and HER4 were shown in Table 1.” for “ErbB4.”
# as §11, §12
# [4] = biological target: HER2 (ErbB2) (Homo sapiens (Human), UniProt P04626); assay: In vitro enzyme activity, HER2 (ErbB2), [γ-33P]ATP filter assay; assay type: biochemical
# Protocol: as §10, with “ErbB4. Eurofins Pharma Discovery Service provided the activity detection method, and the results of the inhibitory activity of the tested compound against HER1, HER2 and HER4 were shown in Table 1.” for “ErbB4.”
# as §11, §12
# [5] = system: BT-474 cell; assay: Cell proliferation inhibitory activity, Cell-Titer-Glo, BT-474; assay type: cell-based; conditions: Homo sapiens, BT-474, 72 h; 3 days incubation
# Source text: as §1, §2, §3, §4, §5, §6, §7, §8, §9
# [6] = system: human breast cancer BT-474 cell subcutaneous xenograft tumor; assay: In vivo efficacy, BT-474 subcutaneous xenograft tumor model; design: species or system BALB/c nude mice; conditions: BT-474 xenograft, 100 mg/kg
# Protocol: Experiment object: to study the in vivo efficacy of the tested compound in human breast cancer BT-474 cell BALB/c nude mouse subcutaneous xenograft tumor model.
# Experimental animals: female BALB/c nude mice, 6 to 8 weeks old, weight: 18 to 22 grams; Supplier Beijing Weitonglihua Laboratory Animal Technology Co., Ltd.
# Human breast cancer BT474 cells were cultured in a monolayer in vitro. The culture conditions were: ATCC Hybri-Care Medium with 1.5 g/L sodium bicarbonate, 10% fetal bovine serum, 100 U/mL penicillin and 100 μg/mL streptomycin, and 37° C., 5% CO2 incubator. Conventional digestion treatment with pancreatin-EDTA for passage was carried out twice a week. When the cell saturation was 80% to 90%, and the number reached the requirement, the cells were collected, counted and inoculated.
# 0.2 mL (1×10^7 cells) of BT474 cells (with matrigel in a volume ratio of 1:1) were subcutaneously inoculated on the right back of each mouse. The grouping and administration were started when the average tumor volume reached about 168 mm^3. (Estrogen tablets were inoculated three days before cell inoculation).
# 7.3 the Preparation of the Tested Samples, Tumor Measurement, Experimental Index and Statistical Analysis were the Same as in Experimental Example 6.
# Chain of HER1 (ErbB1) (P00533 25-1210): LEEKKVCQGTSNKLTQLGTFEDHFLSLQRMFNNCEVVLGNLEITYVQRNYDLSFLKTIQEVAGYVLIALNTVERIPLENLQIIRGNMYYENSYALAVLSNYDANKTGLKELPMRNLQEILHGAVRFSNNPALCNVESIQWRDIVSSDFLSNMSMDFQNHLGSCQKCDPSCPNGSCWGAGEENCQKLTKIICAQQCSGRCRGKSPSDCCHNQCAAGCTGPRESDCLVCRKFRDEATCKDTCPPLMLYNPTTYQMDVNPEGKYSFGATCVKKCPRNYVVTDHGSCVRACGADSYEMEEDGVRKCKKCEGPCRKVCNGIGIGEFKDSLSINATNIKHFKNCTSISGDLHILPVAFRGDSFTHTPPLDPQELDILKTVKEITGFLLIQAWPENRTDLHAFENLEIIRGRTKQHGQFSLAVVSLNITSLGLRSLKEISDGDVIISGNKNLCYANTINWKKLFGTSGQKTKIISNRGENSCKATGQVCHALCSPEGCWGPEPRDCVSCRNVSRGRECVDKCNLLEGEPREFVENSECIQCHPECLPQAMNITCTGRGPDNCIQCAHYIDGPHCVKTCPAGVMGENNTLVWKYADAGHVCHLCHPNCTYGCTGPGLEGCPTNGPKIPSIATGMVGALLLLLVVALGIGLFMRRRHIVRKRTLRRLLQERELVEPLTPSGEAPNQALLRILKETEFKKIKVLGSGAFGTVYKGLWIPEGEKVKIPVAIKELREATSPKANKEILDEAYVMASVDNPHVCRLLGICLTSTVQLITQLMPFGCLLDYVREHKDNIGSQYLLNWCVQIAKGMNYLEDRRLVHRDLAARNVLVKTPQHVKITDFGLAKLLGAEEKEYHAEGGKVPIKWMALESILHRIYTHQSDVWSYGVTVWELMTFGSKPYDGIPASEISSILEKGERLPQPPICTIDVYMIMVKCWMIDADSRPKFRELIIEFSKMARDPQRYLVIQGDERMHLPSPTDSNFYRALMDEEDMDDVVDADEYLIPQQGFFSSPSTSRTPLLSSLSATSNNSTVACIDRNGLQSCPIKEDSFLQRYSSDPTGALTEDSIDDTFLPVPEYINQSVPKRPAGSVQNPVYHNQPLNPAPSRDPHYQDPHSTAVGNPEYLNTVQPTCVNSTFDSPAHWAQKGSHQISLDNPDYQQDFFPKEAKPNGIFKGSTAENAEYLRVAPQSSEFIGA
# Chain of HER4 (ErbB4) (Q15303 26-1308): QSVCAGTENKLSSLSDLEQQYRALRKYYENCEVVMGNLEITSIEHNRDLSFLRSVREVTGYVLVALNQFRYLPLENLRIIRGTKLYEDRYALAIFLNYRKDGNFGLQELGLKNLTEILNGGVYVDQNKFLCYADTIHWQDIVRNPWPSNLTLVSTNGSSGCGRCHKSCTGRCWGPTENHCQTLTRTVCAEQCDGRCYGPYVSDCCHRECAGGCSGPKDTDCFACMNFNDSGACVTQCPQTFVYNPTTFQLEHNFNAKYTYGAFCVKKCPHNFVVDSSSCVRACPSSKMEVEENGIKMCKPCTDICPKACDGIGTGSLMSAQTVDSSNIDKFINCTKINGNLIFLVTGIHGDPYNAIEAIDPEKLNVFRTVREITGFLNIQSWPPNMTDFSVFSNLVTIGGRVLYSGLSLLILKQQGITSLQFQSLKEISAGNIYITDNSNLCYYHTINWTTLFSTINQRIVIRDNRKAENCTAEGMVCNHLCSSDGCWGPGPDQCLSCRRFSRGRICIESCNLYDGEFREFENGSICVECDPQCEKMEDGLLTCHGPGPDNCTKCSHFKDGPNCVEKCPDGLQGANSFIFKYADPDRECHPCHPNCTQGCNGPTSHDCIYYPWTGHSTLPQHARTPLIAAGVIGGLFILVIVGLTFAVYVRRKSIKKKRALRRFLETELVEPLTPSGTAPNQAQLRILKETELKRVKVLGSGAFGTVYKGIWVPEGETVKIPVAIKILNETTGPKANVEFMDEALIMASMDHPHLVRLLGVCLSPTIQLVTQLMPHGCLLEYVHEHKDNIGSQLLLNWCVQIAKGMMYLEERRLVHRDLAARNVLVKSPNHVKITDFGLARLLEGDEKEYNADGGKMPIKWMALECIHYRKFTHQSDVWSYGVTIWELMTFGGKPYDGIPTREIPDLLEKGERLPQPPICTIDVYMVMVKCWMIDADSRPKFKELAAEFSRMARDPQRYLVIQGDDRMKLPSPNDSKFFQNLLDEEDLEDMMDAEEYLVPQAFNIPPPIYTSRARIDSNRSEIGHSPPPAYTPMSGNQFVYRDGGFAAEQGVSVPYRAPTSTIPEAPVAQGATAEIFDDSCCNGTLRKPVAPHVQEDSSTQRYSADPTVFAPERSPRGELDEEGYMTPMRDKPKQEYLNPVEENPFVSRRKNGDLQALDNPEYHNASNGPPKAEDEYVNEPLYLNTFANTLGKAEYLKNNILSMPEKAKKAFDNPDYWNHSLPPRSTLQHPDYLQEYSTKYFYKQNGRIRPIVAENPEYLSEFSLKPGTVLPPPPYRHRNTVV
# Chain of HER2 (ErbB2) (P04626 23-1255): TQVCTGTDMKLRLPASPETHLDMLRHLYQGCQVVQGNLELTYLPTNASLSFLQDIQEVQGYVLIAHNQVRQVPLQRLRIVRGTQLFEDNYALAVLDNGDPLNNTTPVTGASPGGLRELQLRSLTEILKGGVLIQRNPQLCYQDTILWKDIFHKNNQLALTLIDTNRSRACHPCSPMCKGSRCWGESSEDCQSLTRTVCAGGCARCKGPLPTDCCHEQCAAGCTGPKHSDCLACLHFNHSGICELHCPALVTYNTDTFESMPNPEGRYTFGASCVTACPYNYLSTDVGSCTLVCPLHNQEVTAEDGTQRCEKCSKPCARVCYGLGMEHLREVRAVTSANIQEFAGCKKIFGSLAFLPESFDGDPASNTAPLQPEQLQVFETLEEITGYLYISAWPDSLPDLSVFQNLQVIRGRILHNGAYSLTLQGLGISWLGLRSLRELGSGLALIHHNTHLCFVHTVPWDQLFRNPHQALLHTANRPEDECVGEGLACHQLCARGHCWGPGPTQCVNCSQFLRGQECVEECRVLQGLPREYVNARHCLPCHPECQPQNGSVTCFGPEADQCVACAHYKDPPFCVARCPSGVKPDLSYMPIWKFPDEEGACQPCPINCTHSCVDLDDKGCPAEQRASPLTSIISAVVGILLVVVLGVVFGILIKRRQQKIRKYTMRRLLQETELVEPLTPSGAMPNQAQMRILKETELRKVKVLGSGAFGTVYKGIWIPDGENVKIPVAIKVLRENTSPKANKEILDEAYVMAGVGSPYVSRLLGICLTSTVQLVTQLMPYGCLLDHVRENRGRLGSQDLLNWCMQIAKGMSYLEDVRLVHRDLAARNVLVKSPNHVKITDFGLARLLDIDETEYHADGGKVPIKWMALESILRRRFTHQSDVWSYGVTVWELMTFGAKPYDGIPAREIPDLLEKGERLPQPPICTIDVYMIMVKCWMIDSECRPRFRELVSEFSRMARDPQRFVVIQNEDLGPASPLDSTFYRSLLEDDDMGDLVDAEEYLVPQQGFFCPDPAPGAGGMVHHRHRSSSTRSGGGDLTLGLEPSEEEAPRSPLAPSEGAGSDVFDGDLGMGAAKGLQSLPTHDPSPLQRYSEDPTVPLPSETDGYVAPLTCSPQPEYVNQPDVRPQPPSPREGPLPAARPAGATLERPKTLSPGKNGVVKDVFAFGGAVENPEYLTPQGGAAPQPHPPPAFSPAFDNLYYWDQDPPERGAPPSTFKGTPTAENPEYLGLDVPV
IC50 [2] [µM],IC50 [3] [µM],IC50 [4] [µM],IC50 [5] [µM],SMILES,"IC50 ([1]; Homo sapiens, NCI-N87, 72 h) [µM]",RTV ([6]; day 20),T/C ([6]; day 20) [%],TGI ([6]; day 20) [%],"Tumor volume ([6]; day 20 (head: Day 21), mean ± SEM)",IC50 [1] [µM]
0.509,> 1,0.004,–,COCCNC1CCN(Cc2ccn3ncnc(Nc4ccc(Oc5ccn6ncnc6c5)c(C)c4)c23)CC1 [Example 18],0.065,–,–,–,–,–
> 1,> 1,0.016,0.097,Cc1cc(Nc2ncnn3ccc(CN4CCCNCC4)c23)ccc1Oc1ccn2ncnc2c1 [Example 5],0.059,–,–,–,–,–
0.667,> 1,0.003,–,Cc1c(Oc2ccn3ncnc3c2)ccc(Nc2ncnn3ccc(CN4CCC(N)CC4)c23)c1F [Example 31],0.031,–,–,–,–,–
0.861,0.535,0.007,–,Cc1cc(Nc2ncnn3ccc(CN4CCC(O)CC4)c23)ccc1Oc1ccn2ncnc2c1 [Example 16],0.038,–,–,–,–,–
0.284,0.356,0.002,0.087,NC1CCN(Cc2ccn3ncnc(Nc4ccc(Oc5ccn6ncnc6c5)c(Cl)c4F)c23)CC1 [Example 32],0.011,0.61 ± 0.06,7.84,106.44,101 mm^3 and 101 ± 12 mm^3,–
0.325,0.201,0.011,–,Cc1cc(Nc2ncnn3ccc(CN4CCC(C)(N)CC4)c23)ccc1Oc1ccn2ncnc2c1 [Example 9],0.008,–,–,–,–,–
> 1,> 1,0.024,–,Cc1cc(Nc2ncnn3ccc(CN4CCNCC4)c23)ccc1Oc1ccn2ncnc2c1 [Example 1],–,–,–,–,–,–
0.167,0.23,0.007,0.088,COCC1(N)CCN(Cc2ccn3ncnc(Nc4ccc(Oc5ccn6ncnc6c5)c(C)c4)c23)CC1 [Example 20],0.009,–,–,–,–,–
–,–,–,–,CCNC1CCN(Cc2ccn3ncnc(Nc4ccc(Oc5ccn6ncnc6c5)c(C)c4)c23)CC1 [Example 19],0.023,–,–,–,–,–
–,–,–,–,Cc1cc(Nc2ncnn3ccc(CC4CCC(N)CC4)c23)ccc1Oc1ccn2ncnc2c1 (stereo not shown) [Example 29],0.027,–,–,–,–,–
–,–,–,–,Cc1cc(Nc2ncnn3ccc(CN4CC(O)C4)c23)ccc1Oc1ccn2ncnc2c1 [Example 12],0.052,–,–,–,–,–
0.663,> 1,0.014,–,NC1CCN(Cc2ccn3ncnc(Nc4ccc(Oc5ccn6ncnc6c5)c(C(F)(F)F)c4)c23)CC1 [Example 30],–,–,–,–,–,–
–,> 1,0.01,–,Cc1cc(Nc2ncnn3ccc(CN4C[C@H]5CC[C@@H](C4)[C@H]5N)c23)ccc1Oc1ccn2ncnc2c1 [Example 7],0.027,–,–,–,–,–

SMILES,IC50 [2] [µM],IC50 [3] [µM],IC50 [4] [µM],IC50 [5] [µM],"IC50 ([1]; Homo sapiens, NCI-N87, 72 h) [µM]",RTV ([6]; day 20),T/C ([6]; day 20) [%],TGI ([6]; day 20) [%],"Tumor volume ([6]; day 20 (head: Day 21), mean ± SEM)",IC50 [1] [µM]
CO[C@H]1CN(Cc2ccn3ncnc(Nc4ccc(Oc5ccn6ncnc6c5)c(C)c4)c23)CC[C@@H]1N [Example 25],0.207,0.369,0.002,–,–,–,–,–,–,0.014
Cc1cc(Nc2ncnn3ccc(CN4CC[C@H](N)[C@@H](F)C4)c23)ccc1Oc1ccn2ncnc2c1 [Example 21],0.909,> 1,0.004,–,–,–,–,–,–,0.019
Cc1cc(Nc2ncnn3ccc(CN4[C@@H]5CC[C@H]4C[C@H](O)C5)c23)ccc1Oc1ccn2ncnc2c1 [Example 6],0.743,0.15,0.018,–,0.004,–,–,–,–,–
Cc1cc(Nc2ncnn3ccc(CN4[C@@H]5CC[C@H]4C[C@H](N)C5)c23)ccc1Oc1ccn2ncnc2c1 [Example 8],0.385,0.184,0.01,–,0.02,–,–,–,–,–
Cc1cc(Nc2ncnn3ccc(CN4CC[C@H](N)[C@@H](F)C4)c23)ccc1Oc1ccn2ncnc2c1 [Example 23],0.061,0.041,0.002,–,–,–,–,–,–,0.003

# — US12030897B2, “Pyrrolo[2,1-f][1,2,4]triazine derivatives serving as selective HER2 inhibitors and application thereof” (MEDSHINE DISCOVERY INC., priority 2018, dated 2024)
